Laboratory results reported in patent publication US9204653B2, “5-fluoro pyrimidine derivatives” (DOW AGROSCIENCES LLC, priority 2008, dated 2015).
Like-named read-outs stand apart in the source and are kept apart here.

Tested on: Mycosphaerella graminicola; Anamorph: Septoria tritici; Bayer Code SEPTTR
Assay: Leaf blotch of wheat, foliar fungicide treatment, one day protectant (1DP) or three day curative (3DC)
Type: in vivo, Septoria tritici on wheat plants (variety Yuma)
Details: Zymoseptoria tritici, rating of percent disease control
[1] = 24 h, one day protectant (1DP), read-out: SETTTR 1DP 25 ppm
[2] = 24 h, one day protectant (1DP), read-out: SEPTTR 1DP 100 ppm
[3] = 72 h, three day curative (3DC), read-out: SEPTTR 3DC 25 ppm
[4] = 72 h, three day curative (3DC), read-out: SEPTTR 3DC 100 ppm

In the case of `CN1CCCC/C1=N\c1nc(OCc2cccc(F)c2)ncc1F` [Compound 326], the pest or weed control at 25 ppm [1] is reported as 76 to 100%, the pest or weed control at 100 ppm [2] is reported as 76 to 100% and the pest or weed control at 25 ppm [3] is reported as 51 to 75%. For the same compound, the pest or weed control at 100 ppm [4] was 76 to 100%.

`COc1cccc(COc2ncc(F)c(/N=C3\CCCCN3C)n2)c1` [Compound 327] showed a pest or weed control at 25 ppm [1] of 51 to 75%, a pest or weed control at 100 ppm [2] of 76 to 100% and a pest or weed control at 25 ppm [3] of 51 to 75%. For the same compound, the pest or weed control at 100 ppm [4] was 76 to 100%.

For `CCOc1ccccc1COc1ncc(F)c(N)n1` [Compound 328], the pest or weed control at 25 ppm [1] was 76 to 100%, the pest or weed control at 100 ppm [2] was 76 to 100% and the pest or weed control at 25 ppm [3] was 76 to 100%. It also gave a pest or weed control at 100 ppm [4] of 76 to 100%.

With `COc1ccccc1COc1ncc(F)c(NC(=O)Nc2ccccc2F)n1` [Compound 329] the pest or weed control at 25 ppm [1] was 0 to 25%, the pest or weed control at 100 ppm [2] was 0 to 25% and the pest or weed control at 25 ppm [3] was 0 to 25%. For the same compound, the pest or weed control at 100 ppm [4] was 0 to 25%.

`Fc1cnc(OCc2ccccc2)nc1NCOCc1ccccc1` [Compound 330] was tested, and the pest or weed control at 25 ppm [1] was 0 to 25%, the pest or weed control at 100 ppm [2] was 76 to 100% and the pest or weed control at 25 ppm [3] was 0 to 25%. The pest or weed control at 100 ppm [4] was 26 to 50%.

With `CCOCNc1nc(OCc2ccccc2OC)ncc1F` [Compound 331] the pest or weed control at 25 ppm [1] was 76 to 100%, the pest or weed control at 100 ppm [2] was 76 to 100% and the pest or weed control at 25 ppm [3] was 76 to 100%. For the same compound, the pest or weed control at 100 ppm [4] was 76 to 100%.

In the case of `O=C(Nc1ccccc1)Nc1nc(OCc2cccc(F)c2)ncc1F` [Compound 332], the pest or weed control at 25 ppm [1] is reported as 76 to 100%, the pest or weed control at 100 ppm [2] is reported as 76 to 100% and the pest or weed control at 25 ppm [3] is reported as 51 to 75%. For the same compound, the pest or weed control at 100 ppm [4] was 26 to 50%.

`COc1cccc(COc2ncc(F)c(-n3ccnc3)n2)c1` [Compound 334] showed a pest or weed control at 25 ppm [1] of 76 to 100%, a pest or weed control at 100 ppm [2] of 76 to 100% and a pest or weed control at 25 ppm [3] of 76 to 100%. For the same compound, the pest or weed control at 100 ppm [4] was 76 to 100%.

`CC(Oc1ncc(F)c(/N=C/N2CCOCC2)n1)c1ccc(F)cc1` (stereo not shown) [Compound 338] showed a pest or weed control at 25 ppm [1] of 76 to 100%, a pest or weed control at 100 ppm [2] of 76 to 100% and a pest or weed control at 25 ppm [3] of 76 to 100%. The pest or weed control at 100 ppm [4] was 76 to 100%.

`CNc1nc(OCc2ccc(OC)cc2)ncc1F` [Compound 339] was tested, and the pest or weed control at 25 ppm [1] was 0 to 25%, the pest or weed control at 100 ppm [2] was 26 to 50% and the pest or weed control at 25 ppm [3] was 26 to 50%. It also gave a pest or weed control at 100 ppm [4] of 51 to 75%.

With `CCN(N)c1nc(OCc2cccc(OC)c2)ncc1F` [Compound 340] the pest or weed control at 25 ppm [1] was 0 to 25%, the pest or weed control at 100 ppm [2] was 76 to 100% and the pest or weed control at 25 ppm [3] was 26 to 50%. It also gave a pest or weed control at 100 ppm [4] of 76 to 100%.

In the case of `CCOC(=O)CCC(=O)NNc1nc(OCc2ccccc2)ncc1F` [Compound 344], the pest or weed control at 25 ppm [1] is reported as 26 to 50%, the pest or weed control at 100 ppm [2] is reported as 26 to 50% and the pest or weed control at 25 ppm [3] is reported as 0 to 25%. It also gave a pest or weed control at 100 ppm [4] of 26 to 50%.

`CC[Si](CC)(CC)Nc1nc(OCc2cccc(F)c2)ncc1F` [Compound 346] showed a pest or weed control at 25 ppm [1] of 76 to 100%, a pest or weed control at 100 ppm [2] of 76 to 100% and a pest or weed control at 25 ppm [3] of 76 to 100%. For the same compound, the pest or weed control at 100 ppm [4] was 76 to 100%.

For `Nc1nc(OS(=O)(=O)c2cccs2)ncc1F` [Compound 348], the pest or weed control at 25 ppm [1] was 76 to 100%, the pest or weed control at 100 ppm [2] was 76 to 100% and the pest or weed control at 25 ppm [3] was 76 to 100%. The pest or weed control at 100 ppm [4] was 76 to 100%.

Compound `COc1cc(Cl)c(COc2ncc(F)c(N)n2)cc1OC` [Compound 350] has a pest or weed control at 25 ppm [1] of 76 to 100%, a pest or weed control at 100 ppm [2] of 76 to 100% and a pest or weed control at 25 ppm [3] of 76 to 100%. It also gave a pest or weed control at 100 ppm [4] of 76 to 100%.

Work on `COc1ccc(OC)c(COc2ncc(F)c(N)n2)c1` [Compound 351] yielded a pest or weed control at 25 ppm [1] of 76 to 100%, a pest or weed control at 100 ppm [2] of 76 to 100% and a pest or weed control at 25 ppm [3] of 76 to 100%. For the same compound, the pest or weed control at 100 ppm [4] was 76 to 100%.

Compound `COc1ccccc1COc1ncc(F)c(NCOCc2ccccc2)n1` [Compound 354] has a pest or weed control at 25 ppm [1] of 51 to 75%, a pest or weed control at 100 ppm [2] of 76 to 100% and a pest or weed control at 25 ppm [3] of 26 to 50%. For the same compound, the pest or weed control at 100 ppm [4] was 76 to 100%.

Compound `Nc1nc(OC(c2ccc(F)cc2)c2ccc(F)cc2)ncc1F` [Compound 355] has a pest or weed control at 25 ppm [1] of 76 to 100%, a pest or weed control at 100 ppm [2] of 76 to 100% and a pest or weed control at 25 ppm [3] of 76 to 100%. For the same compound, the pest or weed control at 100 ppm [4] was 76 to 100%.

Work on `Fc1cnc(OCc2ccccc2)nc1N/N=C/c1ccco1` [Compound 357] yielded a pest or weed control at 25 ppm [1] of 26 to 50%, a pest or weed control at 100 ppm [2] of 26 to 50% and a pest or weed control at 25 ppm [3] of 0 to 25%. The pest or weed control at 100 ppm [4] was 51 to 75%.

`CC(C)=NNc1nc(OCc2ccc(F)cc2)ncc1F` [Compound 358] showed a pest or weed control at 25 ppm [1] of 0 to 25%, a pest or weed control at 100 ppm [2] of 51 to 75% and a pest or weed control at 25 ppm [3] of 26 to 50%. It also gave a pest or weed control at 100 ppm [4] of 76 to 100%.

With `CN(C)/C=N/c1nc(OS(=O)(=O)c2ccc(Cl)cc2)ncc1F` [Compound 359] the pest or weed control at 25 ppm [1] was 76 to 100%, the pest or weed control at 100 ppm [2] was 76 to 100% and the pest or weed control at 25 ppm [3] was 76 to 100%. The pest or weed control at 100 ppm [4] was 26 to 50%.

Compound `O=C(Nc1nc(OCc2cccc(F)c2)ncc1F)OCc1cccc(F)c1` [Compound 360] has a pest or weed control at 25 ppm [1] of 76 to 100%, a pest or weed control at 100 ppm [2] of 76 to 100% and a pest or weed control at 25 ppm [3] of 76 to 100%. It also gave a pest or weed control at 100 ppm [4] of 76 to 100%.
